Assay [1] addresses Epidermal growth factor receptor (Homo sapiens) (UniProt P00533). The experiment in a line: Inhibition of EGFR at 10 uM by HTRF assay.
For assay [2], the target named is Receptor-type tyrosine-protein kinase FLT3 (Homo sapiens) (UniProt P36888). Nature of the assay: Inhibition of Flt3 at 10 uM by HTRF assay.
Assay [3] deals with Insulin-like growth factor 1 receptor (Homo sapiens) (UniProt P08069). The experiment in a line: Inhibition of IGF1R at 10 uM by HTRF assay.
A short description of assay [4]: Inhibition of Bcr-Abl T315 mutant at 10 uM by HTRF assay.
A short description of assay [5]: Inhibition of PKA at 10 uM by HTRF assay.
Assay [6] addresses T1, Vascular endothelial growth factor receptor 2 (Homo sapiens, UniProt P35968). The experiment in a line: Inhibition of VEGFR2 expressed in HEK293 cells assessed as inhibition of receptor phosphorylation by ELISA. The format is cell-based.
The target of assay [7] is Hepatocyte growth factor receptor (Homo sapiens) (UniProt P08581). The experiment in a line: Inhibition of cMET at 10 uM by HTRF assay.
The target in assay [8] is Bcr/Abl fusion protein (Homo sapiens) (UniProt P00519+P11274). Nature of the assay: Inhibition of bcr-Abl at 10 uM by HTRF assay. The format is protein assay.
Assay [9] concerns the target Insulin receptor (Homo sapiens) (UniProt P06213). The experiment in a line: Inhibition of InR at 10 uM by HTRF assay.
In assay [10] the target is Vascular endothelial growth factor receptor 1 (Homo sapiens, UniProt P17948). The experiment in a line: Inhibition of VEGFR1 assessed as blockade of pGAT-biotin phosphorylation in presence of 2 uM ATP by HTRF assay.
In assay [11] the target is T1, Vascular endothelial growth factor receptor 2. The experiment in a line: Inhibition of VEGFR2 assessed as blockade of pGAT-biotin phosphorylation in presence of 2 uM ATP by HTRF assay.
Assay [12] concerns the target Aurora kinase B (Homo sapiens) (UniProt Q96GD4). Nature of the assay: Inhibition of Aurora B at 10 uM by HTRF assay.
The target of assay [13] is Glycogen synthase kinase-3 beta (Homo sapiens) (UniProt P49841). The experiment in a line: Inhibition of GSK3-beta at 10 uM by HTRF assay.
Chain of Glycogen synthase kinase-3 beta (Homo sapiens) (P49841 whole entry, looked up): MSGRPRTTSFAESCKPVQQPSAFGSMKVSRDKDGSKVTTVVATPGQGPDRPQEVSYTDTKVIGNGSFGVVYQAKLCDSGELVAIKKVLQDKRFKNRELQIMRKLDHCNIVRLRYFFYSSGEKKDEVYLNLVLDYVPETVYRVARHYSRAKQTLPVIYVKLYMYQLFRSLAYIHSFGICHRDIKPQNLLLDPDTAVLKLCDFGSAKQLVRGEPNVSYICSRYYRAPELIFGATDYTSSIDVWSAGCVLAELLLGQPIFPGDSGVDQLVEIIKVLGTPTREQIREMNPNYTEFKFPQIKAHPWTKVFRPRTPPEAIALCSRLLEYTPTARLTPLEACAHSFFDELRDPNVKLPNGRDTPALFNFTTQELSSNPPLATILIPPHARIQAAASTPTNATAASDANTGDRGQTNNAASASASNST
Assay [14] concerns the target Proto-oncogene tyrosine-protein kinase Src (Homo sapiens) (UniProt P12931). Nature of the assay: Inhibition of Src at 10 uM by HTRF assay.
The target in assay [15] is T2, Aurora kinase A (Homo sapiens) (UniProt O14965).
T2 sequence (whole entry): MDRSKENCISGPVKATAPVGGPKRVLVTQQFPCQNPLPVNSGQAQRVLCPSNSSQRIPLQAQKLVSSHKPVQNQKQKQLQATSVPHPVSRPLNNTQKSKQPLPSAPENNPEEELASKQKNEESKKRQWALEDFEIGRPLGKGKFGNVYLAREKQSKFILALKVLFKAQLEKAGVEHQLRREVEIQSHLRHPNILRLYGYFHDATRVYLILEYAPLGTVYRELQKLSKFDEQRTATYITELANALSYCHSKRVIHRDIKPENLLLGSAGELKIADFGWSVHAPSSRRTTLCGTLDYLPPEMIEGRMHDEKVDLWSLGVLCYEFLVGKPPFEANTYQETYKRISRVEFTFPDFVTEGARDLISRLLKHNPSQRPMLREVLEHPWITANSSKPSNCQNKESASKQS
The experiment in a line: Inhibition of Aurora A at 10 uM by HTRF assay.

Assay [16] deals with Fibroblast growth factor receptor 1 (Homo sapiens) (UniProt P11362). The experiment in a line: Inhibition of FGFR1 at 10 uM by HTRF assay.
Assay [17] has as its target Serine/threonine-protein kinase PLK1 (Homo sapiens) (UniProt P53350). Nature of the assay: Inhibition of Plk1 at 10 uM by HTRF assay.
For assay [18], the target named is Cyclin-dependent kinase 1 (Homo sapiens) (UniProt P06493). The experiment in a line: Inhibition of CDK1 at 10 uM by HTRF assay.
Chain of Cyclin-dependent kinase 1 (Homo sapiens) (P06493 whole entry, looked up): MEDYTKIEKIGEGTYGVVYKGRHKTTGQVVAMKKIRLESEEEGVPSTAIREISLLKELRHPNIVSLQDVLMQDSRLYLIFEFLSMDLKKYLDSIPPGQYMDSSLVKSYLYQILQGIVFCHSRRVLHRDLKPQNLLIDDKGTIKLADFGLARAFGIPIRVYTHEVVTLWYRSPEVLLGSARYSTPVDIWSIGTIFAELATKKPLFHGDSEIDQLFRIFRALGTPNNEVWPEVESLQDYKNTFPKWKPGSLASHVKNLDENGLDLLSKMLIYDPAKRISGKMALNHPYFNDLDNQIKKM
Assay [19] addresses Macrophage-stimulating protein receptor (Homo sapiens) (UniProt Q04912). The experiment in a line: Inhibition of Ron at 10 uM by HTRF assay.
Assay [20] addresses Receptor tyrosine-protein kinase erbB-2 (Homo sapiens) (UniProt P04626). The experiment in a line: Inhibition of ErbB2 at 10 uM by HTRF assay.
For assay [21], the target named is Cyclin-dependent kinase 2 (Homo sapiens) (UniProt P24941). The experiment in a line: Inhibition of CDK2 at 10 uM by HTRF assay.

Bounds are passed on as bounds.

Chain of Receptor tyrosine-protein kinase erbB-2 (Homo sapiens) (P04626 whole entry): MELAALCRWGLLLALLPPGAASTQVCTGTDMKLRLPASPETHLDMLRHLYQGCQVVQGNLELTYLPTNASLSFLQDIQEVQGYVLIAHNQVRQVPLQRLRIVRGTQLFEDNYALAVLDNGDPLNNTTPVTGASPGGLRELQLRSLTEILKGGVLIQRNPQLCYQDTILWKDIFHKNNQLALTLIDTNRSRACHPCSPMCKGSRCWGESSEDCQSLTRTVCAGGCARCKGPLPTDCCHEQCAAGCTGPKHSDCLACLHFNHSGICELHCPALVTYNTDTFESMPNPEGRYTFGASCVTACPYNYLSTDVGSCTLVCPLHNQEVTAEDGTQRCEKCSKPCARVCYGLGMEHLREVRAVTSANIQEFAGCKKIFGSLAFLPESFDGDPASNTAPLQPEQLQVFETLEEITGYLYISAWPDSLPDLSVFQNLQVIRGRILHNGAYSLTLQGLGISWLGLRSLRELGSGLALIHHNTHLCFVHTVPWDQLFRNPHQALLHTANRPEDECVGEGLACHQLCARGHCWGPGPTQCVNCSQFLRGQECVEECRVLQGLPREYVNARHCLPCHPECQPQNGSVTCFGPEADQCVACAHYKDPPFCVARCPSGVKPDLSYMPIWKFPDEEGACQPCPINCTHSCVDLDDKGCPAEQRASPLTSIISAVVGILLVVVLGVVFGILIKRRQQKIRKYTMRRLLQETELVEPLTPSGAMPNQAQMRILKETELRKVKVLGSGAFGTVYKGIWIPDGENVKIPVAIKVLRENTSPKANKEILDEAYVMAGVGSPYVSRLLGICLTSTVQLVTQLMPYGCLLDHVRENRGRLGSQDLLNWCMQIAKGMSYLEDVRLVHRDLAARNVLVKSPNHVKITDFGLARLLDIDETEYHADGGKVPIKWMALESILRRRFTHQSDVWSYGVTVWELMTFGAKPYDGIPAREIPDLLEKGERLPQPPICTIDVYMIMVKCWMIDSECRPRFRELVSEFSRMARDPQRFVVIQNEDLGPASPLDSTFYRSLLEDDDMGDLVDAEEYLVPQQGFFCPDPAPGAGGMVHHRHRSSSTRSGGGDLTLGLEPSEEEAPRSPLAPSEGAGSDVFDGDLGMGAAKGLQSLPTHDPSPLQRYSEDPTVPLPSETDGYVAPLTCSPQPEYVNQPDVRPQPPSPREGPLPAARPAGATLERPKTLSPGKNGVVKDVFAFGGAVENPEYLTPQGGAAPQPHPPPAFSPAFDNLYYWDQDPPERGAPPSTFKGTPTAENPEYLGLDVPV
Chain of Macrophage-stimulating protein receptor (Homo sapiens) (Q04912 25-304 limits assumed): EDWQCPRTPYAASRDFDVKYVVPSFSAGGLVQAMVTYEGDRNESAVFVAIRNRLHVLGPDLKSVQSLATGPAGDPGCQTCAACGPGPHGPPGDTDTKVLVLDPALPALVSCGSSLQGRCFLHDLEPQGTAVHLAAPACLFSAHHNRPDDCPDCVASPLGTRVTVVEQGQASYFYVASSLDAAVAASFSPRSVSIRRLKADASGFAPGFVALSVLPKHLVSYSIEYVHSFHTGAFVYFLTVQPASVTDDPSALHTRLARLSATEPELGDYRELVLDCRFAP
Chain of Macrophage-stimulating protein receptor (Homo sapiens) (Q04912 310-1400 limits assumed): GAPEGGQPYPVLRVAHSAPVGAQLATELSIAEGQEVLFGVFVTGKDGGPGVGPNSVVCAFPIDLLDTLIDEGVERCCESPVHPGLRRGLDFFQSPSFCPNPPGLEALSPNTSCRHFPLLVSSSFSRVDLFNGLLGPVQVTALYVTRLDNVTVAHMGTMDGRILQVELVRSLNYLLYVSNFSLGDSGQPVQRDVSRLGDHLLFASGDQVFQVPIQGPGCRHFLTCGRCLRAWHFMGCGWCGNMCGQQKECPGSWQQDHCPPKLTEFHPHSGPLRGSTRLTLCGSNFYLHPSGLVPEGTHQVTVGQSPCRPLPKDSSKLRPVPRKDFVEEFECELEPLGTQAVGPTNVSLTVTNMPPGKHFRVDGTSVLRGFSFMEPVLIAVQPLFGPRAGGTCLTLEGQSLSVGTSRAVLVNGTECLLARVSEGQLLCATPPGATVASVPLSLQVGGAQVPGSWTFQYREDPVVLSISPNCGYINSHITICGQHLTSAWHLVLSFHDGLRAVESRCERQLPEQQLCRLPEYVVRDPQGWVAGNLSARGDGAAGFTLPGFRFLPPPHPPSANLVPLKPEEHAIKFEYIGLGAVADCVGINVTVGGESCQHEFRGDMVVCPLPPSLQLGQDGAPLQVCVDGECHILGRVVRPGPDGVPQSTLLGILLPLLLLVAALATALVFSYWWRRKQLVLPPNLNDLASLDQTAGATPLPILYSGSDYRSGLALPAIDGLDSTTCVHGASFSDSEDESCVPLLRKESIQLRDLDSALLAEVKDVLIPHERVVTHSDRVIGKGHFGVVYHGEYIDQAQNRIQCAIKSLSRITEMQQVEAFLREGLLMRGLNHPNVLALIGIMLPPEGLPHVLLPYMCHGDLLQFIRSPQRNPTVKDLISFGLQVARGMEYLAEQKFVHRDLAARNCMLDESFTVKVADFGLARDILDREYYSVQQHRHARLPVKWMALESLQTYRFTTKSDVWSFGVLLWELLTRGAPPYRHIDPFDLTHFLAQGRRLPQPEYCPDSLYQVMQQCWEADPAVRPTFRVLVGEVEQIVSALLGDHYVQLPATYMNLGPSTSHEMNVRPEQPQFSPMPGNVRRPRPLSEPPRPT
T1 sequence (P35968 whole entry): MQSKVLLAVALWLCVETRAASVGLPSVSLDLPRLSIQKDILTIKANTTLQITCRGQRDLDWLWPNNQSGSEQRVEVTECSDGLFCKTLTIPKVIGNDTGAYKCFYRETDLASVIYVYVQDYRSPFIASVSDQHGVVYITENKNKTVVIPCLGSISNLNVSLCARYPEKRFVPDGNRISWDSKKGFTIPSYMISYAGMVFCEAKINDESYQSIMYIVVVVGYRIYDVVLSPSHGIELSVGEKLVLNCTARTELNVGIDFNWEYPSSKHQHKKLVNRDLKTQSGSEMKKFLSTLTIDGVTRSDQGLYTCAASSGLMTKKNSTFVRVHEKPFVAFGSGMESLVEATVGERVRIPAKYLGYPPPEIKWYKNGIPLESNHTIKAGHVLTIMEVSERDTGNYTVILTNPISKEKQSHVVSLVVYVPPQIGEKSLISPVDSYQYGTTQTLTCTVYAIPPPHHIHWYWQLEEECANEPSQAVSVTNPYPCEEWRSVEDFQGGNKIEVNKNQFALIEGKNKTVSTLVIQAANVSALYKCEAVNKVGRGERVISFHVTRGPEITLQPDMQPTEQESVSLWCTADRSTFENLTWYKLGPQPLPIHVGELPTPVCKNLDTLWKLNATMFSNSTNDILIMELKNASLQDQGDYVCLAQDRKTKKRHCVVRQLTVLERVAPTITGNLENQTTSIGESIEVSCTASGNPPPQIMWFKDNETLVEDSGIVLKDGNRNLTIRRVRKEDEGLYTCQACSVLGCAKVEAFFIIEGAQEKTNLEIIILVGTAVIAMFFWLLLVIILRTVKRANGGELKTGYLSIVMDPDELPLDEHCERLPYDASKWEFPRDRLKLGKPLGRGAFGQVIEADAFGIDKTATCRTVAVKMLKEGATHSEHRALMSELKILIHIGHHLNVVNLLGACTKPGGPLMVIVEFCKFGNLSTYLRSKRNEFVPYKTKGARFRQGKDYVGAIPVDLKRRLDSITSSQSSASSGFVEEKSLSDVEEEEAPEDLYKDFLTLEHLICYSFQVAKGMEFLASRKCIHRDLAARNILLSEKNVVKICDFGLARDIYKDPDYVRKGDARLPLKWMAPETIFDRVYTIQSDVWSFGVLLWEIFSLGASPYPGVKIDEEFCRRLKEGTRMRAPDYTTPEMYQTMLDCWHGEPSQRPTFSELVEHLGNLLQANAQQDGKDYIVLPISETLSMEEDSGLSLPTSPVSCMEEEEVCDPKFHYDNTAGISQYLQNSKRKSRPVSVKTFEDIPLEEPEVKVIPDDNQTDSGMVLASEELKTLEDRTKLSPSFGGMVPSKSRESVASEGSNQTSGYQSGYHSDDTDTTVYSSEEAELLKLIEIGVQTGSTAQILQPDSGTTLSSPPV
Chain of Aurora kinase B (Homo sapiens) (Q96GD4 whole entry): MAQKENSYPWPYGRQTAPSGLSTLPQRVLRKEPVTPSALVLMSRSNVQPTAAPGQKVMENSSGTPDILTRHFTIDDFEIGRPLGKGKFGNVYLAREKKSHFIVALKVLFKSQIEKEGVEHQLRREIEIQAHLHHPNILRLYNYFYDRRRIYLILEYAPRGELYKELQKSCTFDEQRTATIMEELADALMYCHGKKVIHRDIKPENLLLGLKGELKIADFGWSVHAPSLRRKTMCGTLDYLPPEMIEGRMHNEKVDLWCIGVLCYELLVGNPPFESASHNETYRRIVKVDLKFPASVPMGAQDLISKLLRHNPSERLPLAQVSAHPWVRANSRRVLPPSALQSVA

`O=C(Nc1ccc2ccccc2n1)c1nscc1NCc1ccncc1`: the inhibition in assay [1], in [2], in assay [3], in [4], in assay [5] and in assay [7] was less than 30% throughout. Moreover, the inhibition in assay [8], in assay [9], in assay [12], in assay [13], in [14] and in assay [15] was less than 30% throughout. Moreover, the inhibition in [16], in assay [17], in assay [18], in assay [19], in assay [20] and in assay [21] was less than 30% each time. In addition, the IC50 in [6] turned out to be 770 nM; in [10] it was 380 nM; in assay [11], 440 nM.
As for `O=C(Nc1cccc(Br)c1)c1nscc1NCc1ccc2ccccc2n1`, the inhibition in assay [1], in [2], in assay [3], in [4], in [5] and in assay [7] was less than 30% throughout. Further, the inhibition in assay [8], in assay [9], in assay [12], in assay [13], in [14] and in [15] was less than 30% throughout. Besides, the inhibition in [16], in [17], in assay [18], in assay [19], in assay [20] and in [21] was less than 30% throughout. The 50% inhibitory concentration (IC50) in assay [6], in [10] and in assay [11] was greater than 10000 nM each time.
For `O=C(Nc1cccc(C(F)(F)F)c1)c1nscc1NCc1ccccn1`, the inhibition in assay [1], in [2], in [3], in [4], in assay [5] and in [7] was less than 30% throughout. Also, the inhibition in [8], in [9], in assay [12], in [13], in assay [14] and in assay [15] was less than 30% throughout. For the same molecule, the inhibition in assay [16], in [17], in assay [18], in assay [19], in assay [20] and in assay [21] was less than 30% throughout. For the same molecule, the half-inhibitory concentration (IC50) in [6], in assay [10] and in assay [11] was greater than 10000 nM in each case.
In the case of `O=C(Nc1ccc(Cl)c(C(F)(F)F)c1)c1nscc1NCc1ccncc1`, the inhibition in assay [1], in [2], in assay [3], in assay [4], in assay [5] and in assay [7] was less than 30% in each case. The inhibition in [8], in [9], in assay [12], in assay [13], in assay [14] and in assay [15] was less than 30% each time. In addition, the inhibition in assay [16], in [17], in assay [18], in assay [19], in assay [20] and in assay [21] was less than 30% throughout. The IC50 in assay [6] was 530 nM; in assay [10], 980 nM; in assay [11] it was 230 nM.

The record behind these values is ChEMBL document CHEMBL1136839, “3,4-Disubstituted isothiazoles: novel potent inhibitors of VEGF receptors 1 and 2” (Bioorg Med Chem Lett, 2009).
